Data on 9 compounds can be found in US9073903B2, “Imidazole-2,4-dione inhibitors of casein kinase 1” (Jasco Pharmaceuticals, LLC, priority 2010, dated 2015).

The structures appear in SMILES notation. Read-outs that look alike come from different tables or passages of the source.

Data set [1] is described as follows: Hepatic microsomal stability, human. The format is in vitro ADME. As to the method: (§1) Hepatic microsmal assays were performed with compound 5114 in human and rat (Sprague-Dawley). Protein concentrations of 0.4 (human) and 0.2 mg/mL (rat) with an NADPH regenerating cofactor system (2.6 mM NADP+, 6.6 mM glucose-6-phosphate, 0.8 U/mL glucose-6-phosphate dehydrogenase, and 6.6 mM magnesium chloride) were used. A 100 μM 20% DMSO/80% acetonitrile working stock of each of the compounds was diluted 100 fold resulting in 1 μM compound/1% final organic reaction concentrations. Time points were removed at 0 and 60 minutes. At each time point, 100 μL of the incubation suspension was added to 200 μL of acetonitrile containing internal standard (tolbutamide), followed by centrifugation at 3,220 rcf for 10 minutes. Two hundred (200) μL of the resulting supernatants were removed, dried under nitrogen and reconstituted in 100 μL of 2 mM ammonium acetate, 0.1% formic acid in 50% methanol prior to analysis by LC/MS/MS. Testosterone and dexamethasone were used as reference compounds.

The nature of data set [2]: Hepatic microsomal stability, rat. The format is in vitro ADME, rat (Sprague-Dawley). As to the method:
as §1

The conditions of data set [3]: PAMPA, 5 h, 10 μM, pH 7.4. For orientation: In PAMPA a lipid-coated filter parts donor from acceptor wells.
Protocol: The target concentration in the assay was 10 μM, prepared by diluting (1000-fold) the 10 mM stock solutions in DMSO into PBS, pH 7.4. The final DMSO concentration was 0.1%. The 10 μM solutions were added, 300 μL, to wells in the donor plate. The receiver plate, which contained 200 μL of PBS, pH 7.4 per well, was placed in the donor plate and the assembly was incubated for 5 hours at ambient temperature. At the end of the incubation period the plates were separated and the compound concentrations in each solution were determined by LC/MS/MS. The assay was performed in triplicate.
C0 is the initial concentration in the donor well (μM)
CD(t) is the concentration in the donor well after incubation (μM)
CA(t) is the concentration in the acceptor well after incubation (μM)
VD is the volume in the donor well (0.3 mL)
VA is the volume in the acceptor well (0.2 mL)
CE is (CD(t)VD+CA(t)VA)/(VD+VA)
A is the filter area (0.3 cm2)
t is the incubation time (18,000 s).
Another data set deals with different kinases. The experiment in a line: Kinase activity screening by Millipore UK Ltd, percent kinase activity at 300 nM of compound (Table 31). The format is biochemical. As to the method: Protocols for Kinase Activity Screening: Kinase screening was performed by Millipore UK Ltd. Kinase dilution buffer composition: 20 mM MOPS, 1 mM EDTA, 0.01% Brij-35, 5% Glycerol, 0.1% b-mercaptoethanol, 1 mg/mL BSA.

The next data set deals with Caco-2 cells. The experiment in a line: Inhibition of Caco-2 cells (MTS cell proliferation). To be noted: for inhibition at 0.4 µM / inhibition at 0.8 µM / inhibition at 1.6 µM / inhibition at 3.2 µM / inhibition at 6.25 µM / inhibition at 12.5 µM / inhibition at 25 µM / inhibition at 50 µM / inhibition at 100 µM / IC50: Homo sapiens; for inhibition at 0.4 µM: 0.400 μM; for inhibition at 0.4 µM / inhibition at 0.8 µM / inhibition at 1.6 µM / inhibition at 3.2 µM / inhibition at 6.25 µM / inhibition at 12.5 µM / inhibition at 25 µM / inhibition at 50 µM / inhibition at 100 µM: 72 hours; for inhibition at 0.8 µM: 0.800 μM; for inhibition at 1.6 µM: 1.600 μM; for inhibition at 3.2 µM: 3.200 μM; for inhibition at 6.25 µM: 6.250 μM; for inhibition at 12.5 µM: 12.500 μM. The format is cell-based. As to the method: Inhibition of Caco-2 Cells Cells: Caco-2 cells, ATCC Passage 33, Mycoplasma free. Medium: DMEM Medium (GIBCO Cat #11995073) supplemented with 10% fetal bovine serum (Hyclone Cat #SH30396.03). Seeding: 3,000 cells/well (100 μL) into 96-wells plate, incubated overnight at 37° C. in a humidified, 5% CO2 atmosphere. […] Fifty microliters (50 μL) of diluted compounds were added into each well. The final concentrations of the positive control and test compounds were shown in the graphs. The cells were incubated for 72 hours after addition of the test compounds. MTS: 15 uL of MTS solution (Promega Cat #G5430) was added into each well and incubated with cells for 4 hours at 37° C. in a humidified, 5% CO2 atmosphere. Measurement: Absorbance at 490 nm was measured using MD Spectramax Plus384 spectrophotometer. The regression curves were calculated by the GraphPad Prism 5 using “log(inhibitor) vs response—variable slope”. Calculation: % of inhibition=(ODzero ctrl−OD compound)/ODzero ctrl*100.

Where [4] appears, read: replicate 1, read-out: % of inhibition 1.
Where [5] appears, read: replicate 2, read-out: % of inhibition 2.

As for `C[C@@H]1C[C@H]2[C@@H]3CCC4=CC(=O)C=C[C@]4(C)[C@@]3(F)[C@@H](O)C[C@]2(C)[C@@]1(O)C(=O)CO` [Dexamethasone], the “% remaining after incubation, Human Microsomes” value in data set [1] (human, microsomes, 1 h, 1 μM) was determined as 85%. For the same compound, the “% remaining after incubation, Rat Microsomes” value in data set [2] (Sprague-Dawley, rat, microsomes, 1 h, 1 μM) is 91%. Further, the “Mass Retention R” value in data set [3] is recorded as 9%.
As to `Nc1ccc2c(c1)CN(c1nccc(/C=C3\NC(=O)NC3=O)n1)CC2` [Example 64, (Z)-5-((2-(7-amino-3,4-dihydroisoquinolin-2(1H)-yl)pyrimidin-4-yl)methylene)imidazolidine-2,4-dione], in the data set with different kinases, the “Percent Kinase Activity of Enzyme CK1” value stood at 81%, the “Percent Kinase Activity of Enzyme CK1g2” value was 75%, the “Percent Kinase Activity of Enzyme CK2” value is on record as 65% and the “Percent Kinase Activity of Enzyme Pim-1” value turned out to be 83%. Moreover, in the data set on different kinases, the “Percent Kinase Activity of Enzyme Pim-2” value is reported as 81% and the “Percent Kinase Activity of Enzyme Pim-3” value is on record as 97%.
Consider `NCC1CCN(c2nccc(/C=C3\NC(=O)NC3=O)n2)CC1` [Example 65, (Z)-5-((2-(4-(aminomethyl)piperidin-1-yl)pyrimidin-4-yl)methylene)imidazolidine-2,4-dione], for which, in the data set with different kinases, the “Percent Kinase Activity of Enzyme CK1” value came out at 97%, the “Percent Kinase Activity of Enzyme CK1g2” value is 96%, the “Percent Kinase Activity of Enzyme CK2” value amounted to 94% and the “Percent Kinase Activity of Enzyme Pim-1” value was found to be 92%. For the same compound, in the data set on different kinases, the “Percent Kinase Activity of Enzyme Pim-2” value was determined as 78% and the “Percent Kinase Activity of Enzyme Pim-3” value came out at 76%.
Take `Nc1cccc2c1CCN(c1nccc(/C=C3\NC(=O)NC3=O)n1)C2` [Example 66, (Z)-5-((2-(5-amino-3,4-dihydroisoquinolin-2(1H)-yl)pyrimidin-4-yl)methylene)imidazolidine-2,4-dione]: in the data set with different kinases, the “Percent Kinase Activity of Enzyme CK1” value is reported as 98%, the “Percent Kinase Activity of Enzyme CK1g2” value stood at 77%, the “Percent Kinase Activity of Enzyme CK2” value amounted to 78% and the “Percent Kinase Activity of Enzyme Pim-1” value is on record as 91%. In the data set on different kinases, the “Percent Kinase Activity of Enzyme Pim-2” value was found to be 86% and the “Percent Kinase Activity of Enzyme Pim-3” value worked out at 96%.
With `CN(c1nccc(/C=C2\NC(=O)NC2=O)n1)[C@H]1CCCNC1` [Example 67, (S,Z)-5-((2-(methyl(piperidin-3-yl)amino)pyrimidin-4-yl)methylene)imidazolidine-2,4-dione], in the data set with different kinases, the “Percent Kinase Activity of Enzyme CK1” value was found to be 104%, the “Percent Kinase Activity of Enzyme CK1g2” value came out at 111%, the “Percent Kinase Activity of Enzyme CK2” value stood at 94% and the “Percent Kinase Activity of Enzyme Pim-1” value was 98%. For the same compound, in the data set with different kinases, the “Percent Kinase Activity of Enzyme Pim-2” value turned out to be 99% and the “Percent Kinase Activity of Enzyme Pim-3” value is listed as 114%.
`O=C1NC(=O)/C(=C/c2ccnc(N3CCC(CNCc4ccc5ccccc5n4)CC3)n2)N1` [Example 68, (Z)-5-((2-(4-(((quinolin-2-ylmethyl)amino)methyl)piperidin-1-yl)pyrimidin-4-yl)methylene)imidazolidine-2,4-dione]: in the data set with different kinases, the “Percent Kinase Activity of Enzyme CK1” value turned out to be 97%, the “Percent Kinase Activity of Enzyme CK1g2” value is 84%, the “Percent Kinase Activity of Enzyme CK2” value worked out at 109% and the “Percent Kinase Activity of Enzyme Pim-1” value is recorded as 75%. In the data set with different kinases, the “Percent Kinase Activity of Enzyme Pim-2” value came to 69% and the “Percent Kinase Activity of Enzyme Pim-3” value is 63%.
In the case of `O=C1NC(=O)/C(=C/c2ccnc(N3CCC(CNCc4cccc(-c5ccsc5)n4)CC3)n2)N1` [Example 69, (Z)-5-((2-(4-((((6-(thiophen-3-yl)pyridin-2-yl)methyl)amino)methyl)piperidin-1-yl)pyrimidin-4-yl)methylene)imidazolidine-2,4-dione], in the data set on different kinases, the “Percent Kinase Activity of Enzyme CK1” value worked out at 92%, the “Percent Kinase Activity of Enzyme CK1g2” value stood at 76%, the “Percent Kinase Activity of Enzyme CK2” value is reported as 106% and the “Percent Kinase Activity of Enzyme Pim-1” value worked out at 46%. In the data set with different kinases, the “Percent Kinase Activity of Enzyme Pim-2” value was found to be 86% and the “Percent Kinase Activity of Enzyme Pim-3” value came to 59%.
For `CNC(=O)c1cc(Oc2ccc(NC(=O)Nc3ccc(Cl)c(C(F)(F)F)c3)cc2)ccn1` [Sorafenib], in the data set on Caco-2 cells (setting [4]), the inhibition (usually the drop in the measured response relative to a control, in per cent) at 0.4 µM is 0.049%; the inhibition at 0.8 µM is 9.97%; the inhibition at 1.6 µM was 14.3%; the inhibition at 3.2 µM was 17%. Further, in the data set on Caco-2 cells (setting [4]), the inhibition at 6.25 µM is 19.9%, the inhibition at 12.5 µM turned out to be 76.8%, the inhibition at 25 µM stood at 100% and the inhibition at 50 µM was 102%. Also, the inhibition at 100 µM with Caco-2 cells (setting [4]) turned out to be 84.1%. Further, in the data set on Caco-2 cells (setting [5]), the inhibition at 0.4 µM was 0.315%, the inhibition at 0.8 µM was found to be 6.24%, the inhibition at 1.6 µM is 11.4% and the inhibition at 3.2 µM turned out to be 9.39%. In addition, in the data set with Caco-2 cells (setting [5]), the inhibition at 6.25 µM came to 23.5%, the inhibition at 12.5 µM turned out to be 76.3%, the inhibition at 25 µM is 98.5% and the inhibition at 50 µM came to 99%. Also, the inhibition at 100 µM in the data set on Caco-2 cells (setting [5]) stood at 96.7%. In addition, the IC50 in the data set with Caco-2 cells (Table 18, read-out: Caco-2* 50% inhibition concentration) came out at 8.78 µM. Moreover, the IC50 with Caco-2 cells (Table 26, 72 hours, read-out: 50% viability conc.) was determined as 8.77 µM. Moreover, the IC50 with Caco-2 cells (Table 26, 72 hours, read-out: IC50) came to 9.37 µM. The Maximal inhibition % in the data set with Caco-2 cells (Table 26, 72 hours) was found to be 100%.
In the case of `C[C@]12CC[C@H]3[C@@H](CCC4=CC(=O)CC[C@@]43C)[C@@H]1CC[C@@H]2O` [Testosterone], the “% remaining after incubation, Human Microsomes” value in data set [1] (1 μM compound, 0.4 mg/mL protein, NADPH regenerating system, 60 minutes) is 42%. Moreover, in data set [2] (1 μM compound, 0.2 mg/mL protein, NADPH regenerating system, 60 minutes), the “% remaining after incubation, Rat Microsomes” value worked out at 0.6%.
